{"source": "patent US20110081410A1", "about": "“THERAPEUTIC AGENT FOR LOCAL INFLAMMATION” (ST. MARIANNA UNIVERSITY, SCHOOL OFMEDICINE, priority 2005, published 2011)", "test_system": "Synovial cells from OA patients", "settings": "retinoic acid 0.05%, 6 hours after addition, colloidal iron staining", "experimental": "Synovial cells from OA patients were cultured, and the retinoic acid nanocapsule containing calcium carbonate as an ingredient of the capsule produced in Example 1, and retinoic acid (atRA) were added thereto. Six hours after the addition, colloidal iron staining was performed to confirm the status of hyaluronic acid production. The evaluation groups were: DMSO as control, atRA, and the retinoic acid nanocapsule. The concentration of added retinoic acid was set 0.05% in both groups of atRA and retinoic acid nanocapsule.", "data": [{"smiles": "CC1=C(/C=C/C(C)=C/C=C/C(C)=C/C(=O)O)C(C)(C)CCC1", "note": "[atRA, All-trans retinoic acid]", "values": [{"measurement": "Hyaluronic acid production", "result": "confirmed"}]}]}
